Data published in PubChem BioAssay (NCI).
Values joined by “and” are separate entries in the source; they are usually repeats but may differ in a detail not shown here. Identical values can stand only once.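 Briefly, cells in 96-well plates were exposed to five compound concentrations for 48 h, and endpoints were estimated by linear interpolation. At the GI50, growth is halved. At the TGI there is no net growth.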

Legend:
Assay in all cases: growth of human tumour cells (NCI), 48 h
HCT-15 colon = system: HCT-15 colon
HOP-92 NSCLC = system: HOP-92 NSCLC
HCC-2998 colon = system: HCC-2998 colon
CAKI-1 renal = system: CAKI-1 renal
T-47D breast = system: T-47D breast
LOX IMVI melanoma = system: LOX IMVI melanoma
NCI-H226 lung = system: NCI-H226 lung
MALME-3M melanoma = system: MALME-3M melanoma

| SMILES | GI50 (HCT-15 colon) | GI50 (HOP-92 NSCLC) | TGI (HOP-92 NSCLC) | GI50 (HCC-2998 colon) | TGI (HCC-2998 colon) | TGI (CAKI-1 renal) | GI50 (T-47D breast) [µM] | TGI (T-47D breast) [µM] | TGI (LOX IMVI melanoma) | TGI (NCI-H226 lung) | TGI (HCT-15 colon) [µM] | TGI (MALME-3M melanoma) [µM] | GI50 (MALME-3M melanoma) [µM] | GI50 (CAKI-1 renal) [µM] | GI50 (LOX IMVI melanoma) [µM] | GI50 (NCI-H226 lung) [µM] |
| --- | --- | --- | --- | --- | --- | --- | --- | --- | --- | --- | --- | --- | --- | --- | --- | --- |
| COc1cc2c3c(c4cc(OC)c(OC)cc4c2cc1OC)CN1CCC[C@H]1C3 | 0.0463 µM and 0.0111 µM | 0.0366 µM and < 0.0105 µM | 1.34 µM and 0.695 µM | 0.0356 µM and < 0.01 µM | 0.3 µM and 0.656 µM | 0.481 µM and 0.926 µM | 0.0192 | 0.33 | 0.245 µM and 1.46 µM | 1.06 µM | – | – | – | – | – | – |
| COc1ccc2c(Cl)cc(NC(=S)Nc3ccccc3)nc2c1 | – | – | 49.4 µM | – | – | > 100 µM | – | 45.3 | 44 µM | > 100 µM | > 100 | 69.4 | – | – | – | – |
| O=C1OC(c2ccccc2)=N/C1=C\c1ccccc1 | > 100 µM and 49 µM | – | > 100 µM | – | > 100 µM | > 100 µM | – | > 100 | 51.8 µM and 31.6 µM | > 100 µM and 58.2 µM | > 100 | – | – | – | – | – |
| NP1(Oc2ccc(F)cc2)=NP(N)(Oc2ccc(F)cc2)=NP(Oc2ccc(F)cc2)(Oc2ccc(F)cc2)=N1 (configuration not stated) | – | – | 15.4 µM | – | 8.4 µM | 21.8 µM | – | 7.27 | 19.7 µM | – | 14.6 | 18.7 | – | – | – | – |
| OC[C@H]1C[C@](O)(c2ccccc2Cl)[C@@H](c2ccccc2Cl)O1 | 28.4 µM | 22.2 µM | 58.8 µM | 29.5 µM | 79.4 µM | 86.1 µM | – | – | 34.3 µM | 76.3 µM | > 100 | 51.4 | 21.6 | 32 | 16.9 | 26 |
| O=C(O)CN(CCN(CC(=O)O)CC(=O)O)CC(=O)O.[Cu+2].[Na+] | > 100 µM | – | – | > 100 µM | > 100 µM | > 100 µM | > 100 | > 100 | > 100 µM | > 100 µM | > 100 | > 100 | > 100 | > 100 | > 100 | > 100 |
| C=C(C)[C@@H]1CC[C@]2(C(=O)O)CC[C@]3(C)[C@H](CC[C@@H]4[C@@]5(C)CCC(N)C(C)(C)[C@@H]5CC[C@]43C)[C@@H]12 (some centres not stated) | – | – | – | – | – | – | – | – | – | – | – | 3.22 | 1.56 | – | – | – |
| COc1ccccc1NC(=O)c1sc2ncn(CCOc3ccccc3)c(=O)c2c1C | 0.431 µM | > 50 µM | > 50 µM | – | – | > 50 µM | > 50 | > 50 | > 50 µM | – | 15.1 | – | – | 2.42 | 1.52 | – |
